# In patent publication US20070258972A1, “Combination of a Histone Deacetylase Inhibitor with a Death Receptor Ligand” (priority 2003, published 2007):
# What was measured:
# c-FLIPL mRNA = assay: RT-PCR assay for c-FLIP mRNA levels; format: cell-based; details: 8 hours
# Method: Total RNA was isolated from cells utilizing a TRIZOL LS reagent (Invitrogen Carlsbad, Calif.). RT-PCR analysis was performed, as previously described. The RNA (1.0 μg) was reverse-transcribed into cDNA by using SuperScript II RT (Invitrogen Carlsbad, Calif.) according to the manufacturer's protocol. For the c-FLIP PCR, the primer sequences are as follows, forward primer: 5′-GCCCGAGCACCGAGACTACG-3′; and reverse primer: 5′-AGG GAC GGD GAG CTG TGA GAC TG-3′. β-actin forward primer: 5′-CTA CM TGA GCT GCG TGT GG-3′; and reverse primer: MG GM GGC TGG MG AGT GC. The PCR reaction containing 0.2 mM concentration of dATP, dCTP, dGTP, dTTP and 200 nM concentration of each c-FLIP primers and 50 nM of each β-actin primers, 1.5 mM of MgCl2, and 10×PCR buffer containing Tris-HCL (pH 8.0), 500 mM KCL and 1 U of Tag polymerase (Invitrogen Carlsbad, Calif.). The reaction is performed at 95° C. for 5 minutes, and is followed by 30 cycles of de-naturating at 95° C. for 45 seconds, annealing at 52° C. for 45 seconds and the extension at 72° C. for one minute. The PCR products are separated on a 2% agarose/eithidium bromide gel. The size of the amplified products was 395 bases pairs for the c-FLIP and 527 base pairs for β-actin product, respectively.
# Jurkat and SKW 6.4 cells = assay: Western analyses of proteins, Jurkat and SKW 6.4 cells; format: cell-based, human
# Method: Western analyses of DR4, DR5, Apo-2L, FADD, Caspase-8, c-FLIPL & S, BID, Caspase-9, Caspase-3, PARP, XIAP, clAP1, survivin and β-actin are performed using specific anti-sera or monoclonal antibodies according to previously reported protocols. Horizontal scanning densitometry was performed on Western blots by using acquisition into Adobe Photo Shop (Apple, Inc., Cupertino, Calif.) and analysis by the NIH Image Program (U.S. National Institutes of Health, Bethesda, Md.). The expression of β-actin was used as a control.
# DR5 = DR5 cell-membrane expression by flow cytometry, Jurkat cells; format: cell-based, human
# p21WAF1 promoter DNA = assay: ChIP assay, p21WAF1 promoter; format: cell-based, human; details: Jurkat and SKW 6.4 cells
# Method: ChIP analysis was performed by a slight modification of a previously described method. Cells are incubated overnight at a density of 0.25×10^8 cells/ ml at 37° C. with 5% CO2. Next day, cells are cultured with 0, 50, 100 or 250 nM of LAQ 824 for 24 hours. Formaldehyde was then added to the cells to a final concentration of 1%, and the cells are gently shaken at room temperature for 10 minutes. Following this, the cells are pelleted, suspended in 1 mL of ice-cold PBS containing protease inhibitors (Complete, Boehringer Mannheim). Cells are again pelleted, re-suspended in 0.5 mL of SDS lysis buffer (1% SDS/1.0 mM EDTA/50 mM Tris.HCl, pH 8.1) and incubated on ice for 20 minutes. Lysates are sonicated with 15-second bursts. Debris was removed from samples by centrifugation for 20 minutes at 15,000×g at 4° C. An aliquot of the chromatin preparation (100 μL) was set aside and designated as Input Fraction. […] Immunoprecipitated DNA (both immunoprecipitation samples and Input) was recovered by phenol/chloroform extraction and ethanol precipitation and analyzed by PCR. […] The optimal reaction conditions for PCR are determined for each primer pair. […] The ratio between the immunoprecipitated DNA and Input DNA was calculated for each treatment and primer set. The fold increases after treatment with LAQ824 was calculated from the indicated ratio.
compound,measurement,setting,value
"O=C(/C=C/c1ccc(CN(CCO)CCc2c[nH]c3ccccc23)cc1)NO [LAQ824, N-hydroxy-3-[4-[[(2-hydroxyethyl)[2-(1H-indol-3-yl)ethyl]-amino]methyl]phenyl]-2E-2-propenamide]",inhibition of the mRNA level of c-FLIPL,c-FLIPL mRNA,75%
same,acetylation of histone H3 and histone H4,"Jurkat and SKW 6.4 cells; 50 nM or 200 nM, 24 hours, Jurkat and SKW 6.4 cells",increased
same,intracellular levels of p27,"Jurkat and SKW 6.4 cells; 50 nM, SKW 6.4 and Jurkat cells",increase
same,p27 levels,"Jurkat and SKW 6.4 cells; 200 nM, both cell-types",attenuated
same,"Apo-2L/TRAIL, DR4 and DR5 levels","Jurkat and SKW 6.4 cells; 24 hours, SKW 6.4 and Jurkat cells",induces
same,"levels of Bcl-xL, Bcl-2, XIAP, c-IAP and survivin",Jurkat and SKW 6.4 cells; SKW 6.4 and Jurkat cells,attenuates
same,levels of FLIPL and FLIPS,Jurkat and SKW 6.4 cells; SKW 6.4 and Jurkat cells,attenuates
same,levels of p21,Jurkat and SKW 6.4 cells; SKW 6.4 cells,dose-dependent increase
same,cell-membrane expression of DR5,DR5,induces
same,association of p21WAF1 promoter DNA with acetylated histones,p21WAF1 promoter DNA,increased
